This note sets out measurements from patent US9884832B2 (priority 2011, dated 2018).

Structures are written as SMILES.

The first experiment deals with AM2 S31 (wild-type serine at position 31 in the M2 protein), influenza virus A/Udorn/72 (Influenza A virus, UniProt P0DOF5). In words: cell-based. The conditions noted are these: 100 uM; Xenopus oocytes; activity range class.
Sequence of AM2 S31 (wild-type serine at position 31 in the M2 protein), influenza virus A/Udorn/72 (P0DOF5 whole entry, looked up): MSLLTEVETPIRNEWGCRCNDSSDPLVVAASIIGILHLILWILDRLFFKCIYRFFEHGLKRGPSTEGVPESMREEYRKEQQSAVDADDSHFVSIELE
`F[B-](F)(F)c1ccc(CNC23CC4CC(CC(C4)C2)C3)cc1.[K+]` [Example 2a]: the “S31 OOcyte Inhibition at 100 uM (%)” value is “A ((A)=31-95%)”.

The same experiment, now with this note: 100 uM; Xenopus oocytes; activity range class; read-out: S31 OOcyte Inhibition at 100 uM (%).
As for `c1cc(C2CC2)ccc1CNC12CC3CC(CC(C3)C1)C2` [Example 9a, N-(4-Cyclopropylbenzyl)adamantan-1-amine], the inhibition at 100 µM fell in the range of 31 to 95%. The same measure, in the same setting: in the case of `COc1cc(Cl)sc1CNC12CC3CC(CC(C3)C1)C2` [Example 80a] it was 31 to 95%; in that of `CC(C)(C)c1ccc(CNC23CC4CC(CC(C4)C2)C3)cc1` [Example 7a, N-(4-(tert-Butyl)benzyl)adamantan-1-amine methanesulfonate], 0 to 30%. Consider `Cc1cc(CNC23CC4CC(CC(C4)C2)C3)sc1Br` [Example 77a, N-((5-bromo-4-methylthiophen-2-yl)methyl)adamantan-1-amine], for which the inhibition at 100 µM was 31 to 95%. On the same count and under the same terms, with `c1cc(CNC23CC4CC(CC(C4)C2)C3)cs1` [Example 68a, Adamantan-1-yl-thiophen-3-ylmethyl-amine] the figure was 31 to 95%; with `c1csc(-c2nnc(CNC34CC5CC(CC(C5)C3)C4)s2)c1` [Example 151a, N-((5-(thiophen-2-yl)-1,3,4-thiadiazol-2-yl)methyl)adamantan-1-amine], 0 to 30%. In the case of `Cc1nc(CNC23CC4CC(CC(C4)C2)C3)no1` [Example 96a, N-((5-methyl-1,2,4-oxadiazol-3-yl)methyl)adamantan-1-amine], the inhibition at 100 µM lay within 31 to 95%.

The experiment is the same for the next values; noted with them: Table 1; 100 uM; Xenopus oocytes, pH 5.5, -20 mV; read-out: S31 OOcyte Inhibition at 100 uM (%).
Regarding `c1cc2sc(CNC34CC5CC(CC(C5)C3)C4)cc2s1` [Example 81, Adamantan-1-yl-thieno[3,2-b]thiophen-2-ylmethyl-amine], the inhibition at 100 µM was 31 to 95%. Still for that read-out and setting: in the case of `c1cc2cc(CNC34CC5CC(CC(C5)C3)C4)sc2o1` [Example 83, Adamantan-1-yl-thieno[2,3-b]furan-5-ylmethyl-amine] it was 31 to 95%. For `c1cn2cc(CNC34CC5CC(CC(C5)C3)C4)nc2s1` [Example 86, Adamantan-1-yl-imidazo[2,1-b]thiazol-6-ylmethyl-amine], the inhibition at 100 µM fell in the range of 31 to 95%.

For `c1cc2[nH]c(CNC34CC5CC(CC(C5)C3)C4)cc2s1` [Example 80, Adamantan-1-yl-(4H-thieno[3,2-b]pyrrol-5-ylmethyl)-amine], the inhibition at 100 µM lay within 31 to 95%.

On to `c1cc2c(cc1CNC13CC4CC(CC(C4)C1)C3)OCO2` [Example 49], for which the inhibition at 100 µM was in the range of 31 to 95%.

The same experiment, now with this note: Table 3; 100 uM; Xenopus oocytes, pH 5.5, -20 mV; read-out: S31 OOcyte Inhibition at 100 uM (%).
As to `c1nc(CNC23CC4CC(CC(C4)C2)C3)sc1C1CC1` [Example 65b, Adamantan-1-yl-(5-cyclopropyl-thiazol-2-ylmethyl)-amine], the inhibition at 100 µM lay in the range of 0 to 30%. As for `C(#Cc1cccs1)CNC12CC3CC(CC(C3)C1)C2` [Example 88b], the inhibition at 100 µM is 0 to 30%. On to `c1nc(N2CCCCC2)ncc1CNC12CC3CC(CC(C3)C1)C2` [Example 58b, N-((2-(piperidin-1-yl)pyrimidin-5-yl)methyl)adamantan-1-amine], for which the inhibition at 100 µM was 0 to 30%.

Regarding `Clc1ccccc1-c1cc(CNC23CC4CC(CC(C4)C2)C3)no1` [Example 45b, N-((5-(2-chlorophenyl)isoxazol-3-yl)methyl)adamantan-1-amine], the inhibition at 100 µM was 0 to 30%. On the same count and under the same terms, in the case of `CCCc1cc(CNC23CC4CC(CC(C4)C2)C3)no1` [Example 26b, N-((5-propylisoxazol-3-yl)methyl)adamantan-1-amine] it was 0 to 30%. Take `CCCc1nc(CNC23CC4CC(CC(C4)C2)C3)no1` [Example 29b, N-((5-propyl-1,2,4-oxadiazol-3-yl)methyl)adamantan-1-amine]: the inhibition at 100 µM is 0 to 30%. On to `CSc1ccccc1-c1ccc(CNC23CC4CC(CC(C4)C2)C3)nc1` [Example 67b, Adamantan-1-yl-[5-(2-methylsulfanyl-phenyl)-pyridin-2-ylmethyl]-amine], for which the inhibition at 100 µM lay within 31 to 95%.

With `CCOc1ccc(-c2ccc(CNC34CC5CC(CC(C5)C3)C4)s2)cc1` [Example 49b, N-((5-(4-Ethoxyphenyl)thiophen-2-yl)methyl)adamantan-1-amine], the inhibition at 100 µM fell in the range of 0 to 30%.
